SMILES strings stand for the structures.

Holding throughout (type): functional
Holding throughout (conditions): read-out: IZ

The subject of experiment [1] is Micrococcus luteus. The experiment can be described thus: Antimicrobial activity against Micrococcus luteus at 1000 ug/mL after 24 hrs by paper disk diffusion method. Background: Agar diffusion results depend on both activity and mobility in agar.
Experiment [2] concerns Escherichia coli. The experiment can be described thus: Antimicrobial activity against Escherichia coli at 1000 ug/mL after 24 hrs by paper disk diffusion method.
Experiment [3] has as its system Klebsiella pneumoniae. Nature of the experiment: Antimicrobial activity against sKlebsiella pneumoniae at 1000 ug/mL after 24 hrs by paper disk diffusion method.
Experiment [4] relates to Staphylococcus aureus. Nature of the experiment: Antimicrobial activity against Staphylococcus aureus at 1000 ug/mL after 24 hrs by paper disk diffusion method.
In experiment [5] the test system is Alcaligenes faecalis. The experiment can be described thus: Antimicrobial activity against Alcaligenes faecalis at 1000 ug/mL after 24 hrs by paper disk diffusion method.
Experiment [6] concerns Saccharomyces cerevisiae. The experiment can be described thus: Antimicrobial activity against Saccharomyces cerevisiae at 1000 ug/mL after 24 hrs by paper disk diffusion method.
Experiment [7] relates to Priestia megaterium. The experiment can be described thus: Antimicrobial activity against Bacillus megaterium at 1000 ug/mL after 24 hrs by paper disk diffusion method.

For `CCC(O)CC1CCC(C(C)C(=O)OC(C)CC2CCC(C(C)C(=O)O)O2)O1` (configuration not stated) [BONACTIN], the zone of inhibition at 1000 µg/mL turned out to be 8 mm in experiment [1]; 9 mm in experiment [2]; 8.5 mm in experiment [3]; 7 mm in experiment [4]; 10 mm in experiment [5]; 7.5 mm in experiment [6]. The zone of inhibition at 1000 µg/mL in experiment [7] worked out at 8 mm.

These data come from ChEMBL document CHEMBL1150697, “Isolation and structure determination of an antimicrobial ester from a marine sediment-derived bacterium” (2003).
